Values joined by “and” are separate entries in the source; they are usually repeats but may differ in a detail not shown here. Identical values can stand only once.
Assays:
CytC [1] = target: T1, CytC (Homo sapiens, UniProt P99999); assay: CytC aptasensor calibration curve by square wave voltammetry; assay type: binding
T1 construct: purchased RayBiotech Life, Inc (GA, USA)
From the text: (§1) Characterization of the electrochemical aptamer-based sensor. An electrochemical sensor with a modified aptamer that recognizes CytC was developed, enabling real-time monitoring of CytC increases in the supernatant due to cell death in cuboids during drug screening. The aptamer sequences were modified with a redox-active molecule, methylene blue (MB), at the distal end of the aptamer. As shown at FIG. 2A, the binding of the CytC target induces a rapid and reversible conformational change in the aptamer, increasing the electron transfer (eT) rate between the MB reporter and the WE surface. This change in eT results in a measurable variation in redox current, easily detectable using square wave voltammetry (SWV). Changes in peak current height were monitored, which correlates with the proximity of the MB redox tag to the electrode. The performance of the aptasensors in response to varying concentrations of CytC (ranging from 1 to 30,000 ng/mL) is presented at FIG. 2B. At a recording frequency of 50 Hz, the peak current height of the sensors decreases as the CytC concentration increases.
Electrochemical signal measurement. All the electrochemical measurements were performed using a Digi-Ivy potentiostat (DY-2219, Digi-Ivy, Austin, TX, USA). For the SWV measurements, the sensors were integrated from 0.0 to −0.5 V (versus Ag/AgCl) with 40-mV amplitude and a voltage increment of 1 mV suitable frequency setting (ranging from 10 Hz to 1,000 Hz). A conventional three-electrode cell was used in electrodeposition, Ag/AgCl with 3M KCl as reference electrode, and platinum wire (0.05 mm diameter, Alfa Aesar, MA, USA) as counter electrode.
Quantitative analysis and characterization of the Cyt C aptamer sensor. The CytC sensors were characterized in cultured medium DMEM-F12-10% FBS with spiked human CytC recombinant (reconstituted in PBS). The SWV measurement for aptasensors was scanned from −0.5 V to 0 V with 40-mV amplitude and a step potential of 1 mV. The frequency is 50 Hz and 1,000 Hz.

CytC [2] = target: T1, CytC; assay: Selectivity of the CytC aptasensor against interferents and drugs; assay type: binding
Experimental: Selectivity of the CytC aptasensor. Selectivity is a factor for the practical application of these sensors in tumor-on-a-chip models for drug screening. To assess the selectivity of the sensors, experiments were conducted in which the sensor's responses to CytC (100 ng/mL) vs. responses in the presence of other potentially interfering molecules (also at 100 ng/mL) were measured. Measurements were performed in a growth medium at 50 Hz.
Ex-vivo monitoring of CytC from microdissected tumor tissues after drug treatment in culture using the aptasensor platform. The sensor platform's ability to quantify CytC secretion from cuboids was evaluated at different time points during an extended culture period (48 hrs). Cuboids from human U87 glioma cell-derived tumors grown in athymic nude mice were prepared. […] Next, the sensor platform's ability to measure CytC secretion from cuboids in response to exposure to cytotoxic drugs was evaluated. Initially, the baseline signal was measured with the encapsulated cuboids on the WE before exposing U87 cuboids to different concentrations of cisplatin (a cytotoxic chemotherapy drug, FIG. 5C), sepantronium bromide, (YM-155, a survivin inhibitor and potential anti-cancer drug, FIG. 5D), and mocetinostat (MOC, a histone deacetylases inhibitor cancer drug, FIG. 5E) for 48 hrs. […]

CytC [3] = target: T1, CytC; assay: Binding kinetics of the CytC aptasensor (temporal response, flow injection analysis)
From the text: Binding kinetics of the CytC aptasensor. The binding kinetics of aptamer-protein complexes were further evaluated. […] Next, the monomolecular dissociation rate constant (koff) was computed. The aptasensor platform was adapted for flow injection analysis under constant flow. The sensor platform was modified to incorporate an inlet and outlet loop injection system. With this setup, the different phases of aptamer-target interaction were able to be measured, including association, dissociation, and equilibrium. […] Initially, the aptamer remained unbound in the absence of the target, producing baseline levels of current. The introduction of the target initiated the association phase, which led to the occupation of aptamer binding sites. This phase continued until a steady-state or equilibrium point was attained. Subsequently, the semi-automated target removal initiated the dissociation phase of the aptamer-target complex. The continuous flow of the medium enabled the aptasensor to recover eventually, gradually returning to the baseline levels within approximately 12 hrs.
Modify sensor platform to become injection analysis platform for characterization of binding kinetics. The existing platform was modified by introducing an additional PMMA layer to establish channels and the well layer altered to create a sealed chamber for flow injection. The PMMA layer (0.3 mm thick) was lined with 3M300LSE adhesive before being precisely cut using a CO2 laser. The culture medium was injected through tubing (Tygona, Cole-Parmer, IL, USA) connected to the injector loop at a 2.5 mL/min flow rate using a Fusion 200 syringe pump (Chemyx, Inc, TX, USA). Following a 5-minute equilibration period during which the sensors were exposed to continuous medium flow, CytC was introduced into the flow as the target compound.

[4] = test system: U87 glioma xenograft cuboids; assay: On-device aptasensor monitoring of CytC secretion from drug-treated cuboids; assay type: cell-based; conditions: for CytC level vs control: 12 to 48 hrs
Experimental: Ex-vivo monitoring of CytC from microdissected tumor tissues after drug treatment in culture using the aptasensor platform. The sensor platform's ability to quantify CytC secretion from cuboids was evaluated at different time points during an extended culture period (48 hrs). Cuboids from human U87 glioma cell-derived tumors grown in athymic nude mice were prepared. After overnight culture in a 96-well plate to allow recovery from tissue damage due to the cutting procedure, the cuboids were transferred onto the sensor platform for measurement. To prevent random adhesion of the cuboids to the sensor surface and improve the precise localization of CytC secretion detection, the cuboids were encapsulated in a hydrogel. They were mixed with hydrogel before transferring onto the sensors and immobilizing them to a restricted area just above the working electrode (FIGS. 5A-5B). […] Encapsulation of cells in hydrogels in close proximity to the WE also generates a more localized and distinguishable electrochemical response. Hydrogels can be used as a protective layer to ensure the long-term stability of aptasensors. A polysaccharide hydrogel (Cellink, Bioink, Boston, USA) that contains nanofibrillar cellulose and sodium alginate was used. […] It was also observed that the performance of the sensors remained unhindered regardless of the hydrogel concentration, apart from an extension of the reaction time to approximately 30 min. […] Next, the sensor platform's ability to measure CytC secretion from cuboids in response to exposure to cytotoxic drugs was evaluated. Initially, the baseline signal was measured with the encapsulated cuboids on the WE before exposing U87 cuboids to different concentrations of cisplatin (a cytotoxic chemotherapy drug, FIG. 5C), sepantronium bromide, (YM-155, a survivin inhibitor and potential anti-cancer drug, FIG. 5D), and mocetinostat (MOC, a histone deacetylases inhibitor cancer drug, FIG. 5E) for 48 hrs. […] These observations were consistent with fluorescence-based findings and agreed with the sensor-based responses. […]

[5] = test system: U87 glioma xenograft cuboids; assay: Terminal SYTOX green dead stain fluorescence of cuboids; assay type: cell-based; conditions: 48 hrs
Cytochrome c (CytC) = Cytochrome c (CytC) (Homo sapiens, UniProt P99999 P99999:2-105); assay: apparent KD, electrochemical aptamer sensor on Au, square wave voltammetry 50 Hz, Langmuir-Hill fit; text also prints 515±130 μM (6.19 ng/mL corresponds to abou); conditions: tags: RayBiotech Life recombinant human cytochrome c; label: 3' methylene blue
Cytochrome c (CytC), sequence (P99999 2-105, one chain of several): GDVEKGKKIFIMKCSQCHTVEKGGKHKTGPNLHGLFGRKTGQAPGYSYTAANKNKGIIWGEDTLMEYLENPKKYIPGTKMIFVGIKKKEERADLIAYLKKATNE
From the text: as §1

T1 sequence (P99999 whole entry): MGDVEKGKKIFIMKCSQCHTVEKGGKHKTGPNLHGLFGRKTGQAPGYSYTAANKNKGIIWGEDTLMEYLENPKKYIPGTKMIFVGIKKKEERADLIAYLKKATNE

## 5′-/ThioMC6-D/CC GTGTCTGGGGCCGACCGGCGCATTGGGTACGTTGTTGC/AmMO/-3′ (DNA CCGTGTCTGGGGCCGACCGGCGCATTGGGTACGTTGTTGC; chemistry not fully specified) [CytC aptasensor, DNA aptamer recognizing cytochrome C, modified with methylene blue redox reporter, immobilized on gold working electrode]
CytC [1]; 50 Hz
  detectable relevant concentrations: up to 3.32 μM
  dynamic range: up to 39,580 ng/mL
CytC [1]; calibration curve at 50 Hz, nonlinear regression fit to Langmuir-Hill isotherm
  apparent dissociation constant, KD: 6.19 ± 1.57 ng/mL and ~6 ng/mL
CytC [2]; CytC 100 ng/mL vs FGF, EGF, IL-2, BSA at 100 ng/mL, growth medium, 50 Hz
  signal gain for CytC vs interfering molecules: higher signal gain
CytC [2]; CytC 100 and 2000 ng/mL vs DMSO, MOC, FOLFOX, Cisplatin, Staurosporine, YM-155, culture medium, 50 Hz, 1,000 Hz, KDM
  signal gain for CytC vs drugs used for treatment: higher signal gain
CytC [3]
  time to return to baseline (dissociation): 12 h
CytC [3]; after addition of 1,000 ng/ml CytC, SWV 50 Hz
  response time to target: ≤ 100 s
CytC [3]; continuous flow of medium after target removal
  time to return to baseline levels (dissociation): approximately 12 hrs

## Nc1ccccc1NC(=O)c1ccc(CNc2nccc(-c3cccnc3)n2)cc1 [MOC, mocetinostat]
[4]; 10 μM MOC, 48 hrs, not statistically significant
  CytC production rate vs DMSO control: higher average CytC production rate than the DMSO control
[5]; 10 μM MOC
  SG dead stain fluorescence vs DMSO control: slightly elevated SG dead stain fluorescence

## N.N.[Cl][Pt][Cl] [cisplatin]
[4]; 30 μM cisplatin
  CytC level vs control: higher CytC level compared to the control
[4]; 100 μM cisplatin
  CytC level vs control: highest levels of CytC
[5]; 30 μM cisplatin
  SG dead stain fluorescence vs control: higher SG dead stain fluorescence
[5]; 100 μM cisplatin
  SG dead stain fluorescence vs control: higher SG dead stain fluorescence

B1: CytC aptamer (SEQ ID NO:1) (ssDNA)
DNA: CCGTGTCTGGGGCCGACCGGCGCATTGGGTACGTTGTTGC
modifications: 5' ThioMC6-D (disulfide C6 thiol, attached to gold electrode); 3' amino modifier conjugated to methylene blue
Cytochrome c (CytC)
  binding result: binds
